Values of other authors in PMC10097024, “Cytotoxic and Antibacterial Prenylated Acylphloroglucinols from Hypericum olympicum L” (Plants, 2023).
pIC50: −log10 of the molar value. In brackets after ≈: the same amount, converted by molar mass. Several values for one entry are separate records, joined by “and”; a condition that tells them apart may be missing. Identical values can stand only once. Like-named read-outs stand apart in the source and are kept apart here.

What was measured:
[1] = tested on: Corynebacterium diphtherie; conditions: cited from earlier work
E. faecalis = conditions: cited from earlier work
[2] = tested on: Gram-negative bacteria, such as E. coli and fungi; conditions: cited from earlier work
Sarcina lutea = conditions: cited from earlier work
leukemia U937 cells = conditions: lowest IC50 value; cited from earlier work
MDA-MB-231 cells = conditions: cited from earlier work
[3] = tested on: prostate cancer cell PC-3; conditions: cited from earlier work
K-562 cells = conditions: K-562; cited from earlier work
MRSA = conditions: MRSA; cited from earlier work
S. aureus = conditions: cited from earlier work

Compound: CC(C)=CCC[C@]1(C)[C@@H](CC=C(C)C)C[C@@]2(CC=C(C)C)C(=O)[C@]1(C(=O)C(C)C)C(=O)C(CC=C(C)C)=C2O [hyperforin]
- MIC [1]: 0.1 mg/L and 0.19 μM
- MIC (E. faecalis): 1 µg/mL (≈ 1.86 µM)
- MIC [2]: 400 µg/mL (≈ 745 µM)
- MIC (Sarcina lutea): 0.1 mg/L and 0.19 μM
- pIC50 (leukemia U937 cells): 5.74
- pIC50 (MDA-MB-231 cells): 4.92
- pIC50 [3]: 4.43
- pIC50 (K-562 cells): 4.68
- MIC (MRSA): 1 µg/mL (≈ 1.86 µM)
- MIC (S. aureus): 0.1 mg/L and 0.19 μM
- MIC (S. aureus; listed as Hyperforin): 50 mg/L (≈ 93.1 µM)
